Measured values as given in PubChem BioAssay AID248 (DTP/NCI, 2004).
Inconclusive results and toxic doses are left out. Cut-off read from the data, not from the text of the source: active = T/C of 150% or more; inactive = T/C below 125%.

Test system: L1210 leukemia ip in BDF1 mice, survival T/C
Assay: NCI In Vivo Anticancer Drug Screen. Data for tumor model L1210 Leukemia (intraperitoneal) in B6D2F1 (BDF1) mice
Details: endpoint: mean survival time, vehicle: saline with Tween-80, higher = longer survival
Procedure, shortened: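 In this screen, tumor-bearing mice given compound are compared to those given vehicle, and their survival values are reported as a treated-to-control quotient.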

[1] = dose: 100.0 mg/kg/injection, schedule: Q01DX009 (ip)
[2] = dose: 100.0 mg/kg/injection, schedule: Q04DX003 (ip)
[3] = dose: 200.0 mg/kg/injection, schedule: Q01DX009 (ip)
[4] = dose: 200.0 mg/kg/injection, schedule: Q04DX003 (ip)
[5] = dose: 400.0 mg/kg/injection, schedule: Q01DX009 (ip)
[6] = dose: 400.0 mg/kg/injection, schedule: Q04DX003 (ip)

Measured: T/C

CCOC(=O)c1csc(CNC(=O)c2ccccc2)n1
inactive: dose: 100.0 mg/kg/injection, schedule: Q01DX001 (ip) 107 % of control | [1] 100 % of control | [2] 97 % of control | dose: 200.0 mg/kg/injection, schedule: Q01DX001 (ip) 98 % of control | [3] 97 % of control | [4] 95 % of control | dose: 400.0 mg/kg/injection, schedule: Q01DX001 (ip) 104 % of control | [5] 103 % of control | [6] 93 % of control

CCOC(=O)/C(Cc1cnc2ccccc2n1)=N\O
inactive: [1] 94 % of control | [2] 105 % of control | [3] 96 % of control | [4] 100 % of control | [5] 100 % of control | [6] 105 % of control
